Target: T1, recombinant Vps34 (Homo sapiens, UniProt Q8NEB9)
T1 construct: purchased Invitrogen PV5126
Assay: Phosphorylation of phosphatidylinositol (PI) by Vps34 in vitro, ADP detected by TR-FRET (HTRF Transcreener ADP)
Format: biochemical
Details: 10 μM ATP, 55 μg/ml PI, approximately 3 nM Vps34, 1 hour at ambient temperature; absolute IC50, mean of two independent experiments; read-out: IC50 activity range

T1 sequence (Q8NEB9 whole entry): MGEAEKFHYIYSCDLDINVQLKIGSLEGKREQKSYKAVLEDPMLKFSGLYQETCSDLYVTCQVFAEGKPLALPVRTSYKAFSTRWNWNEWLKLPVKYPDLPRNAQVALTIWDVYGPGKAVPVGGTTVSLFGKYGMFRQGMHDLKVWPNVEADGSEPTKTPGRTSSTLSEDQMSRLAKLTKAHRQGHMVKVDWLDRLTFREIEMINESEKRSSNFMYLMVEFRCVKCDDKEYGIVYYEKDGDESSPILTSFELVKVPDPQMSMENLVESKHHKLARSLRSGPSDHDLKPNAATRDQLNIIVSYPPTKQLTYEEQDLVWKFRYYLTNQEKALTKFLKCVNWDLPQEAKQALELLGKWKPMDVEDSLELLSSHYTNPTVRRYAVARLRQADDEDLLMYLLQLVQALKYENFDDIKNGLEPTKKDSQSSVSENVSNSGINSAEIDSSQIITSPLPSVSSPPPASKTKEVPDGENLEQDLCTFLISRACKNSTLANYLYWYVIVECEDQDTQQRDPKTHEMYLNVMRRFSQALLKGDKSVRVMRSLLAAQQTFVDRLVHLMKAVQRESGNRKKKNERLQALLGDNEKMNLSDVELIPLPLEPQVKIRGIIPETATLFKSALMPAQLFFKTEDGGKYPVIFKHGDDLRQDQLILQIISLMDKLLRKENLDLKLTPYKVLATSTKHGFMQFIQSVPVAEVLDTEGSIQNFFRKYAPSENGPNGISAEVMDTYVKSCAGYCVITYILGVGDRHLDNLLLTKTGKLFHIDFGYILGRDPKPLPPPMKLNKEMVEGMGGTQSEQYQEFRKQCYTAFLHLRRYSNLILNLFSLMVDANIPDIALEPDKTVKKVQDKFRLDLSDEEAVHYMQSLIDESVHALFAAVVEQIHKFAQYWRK

SMILES: Cc1cc(CN2c3nc(N4[C@H](C)COC[C@H]4C)cc(=O)n3CC[C@H]2C(F)(F)F)on1 [Example 155, (S)-2-((3R,5R)-3,5-Dimethylmorpholin-4-yl)-9-(3-methyl-isoxazol-5-ylmethyl)-8-trifluoromethyl-6,7,8,9-tetrahydro-pyrimido[1,2-a]-pyrimidin-4-one]
- IC50: < 10 nM

SMILES: C[C@@H]1COC[C@@H](C)N1c1cc(=O)n2c(n1)N(c1ccnc(Cl)c1)[C@H](C(F)(F)F)CC2 [Example 159, (S)-9-(2-Chloro-pyridin-4-yl)-2-((3R,5R)-3,5-dimethyl-morpholin-4-yl)-8-trifluoromethyl-6,7,8,9-tetrahydro-pyrimido[1,2-a]-pyrimidin-4-one]
- IC50: < 10 nM

SMILES: CC(C)Oc1ccc(CN2c3nc(N4CCOC[C@H]4C)cc(=O)n3CC[C@H]2C(F)(F)F)cn1 [Example 229, (S)-9-(6-Isopropoxy-pyridin-3-ylmethyl)-2-((R)-3-methyl-morpholin-4-yl)-8-trifluoromethyl-6,7,8,9-tetrahydro-pyrimido[1,2-a]-pyrimidin-4-one]
- IC50: < 10 nM

SMILES: C[C@@H]1COCCN1c1cc(=O)n2c(n1)N(Cc1nnc[nH]1)[C@H](C(F)(F)F)CC2 [Example 264, (S)-2-((R)-3-Methyl-morpholin-4-yl)-9-(4H-[1,2,4]triazol-3-yl-methyl)-8-trifluoromethyl-6,7,8,9-tetrahydro-pyrimido[1,2-a]-pyrimidin-4-one]
- IC50: < 10 nM

SMILES: C[C@@H]1COCCN1c1cc(=O)n2c(n1)N(CC(=O)C1CC1)[C@](C)(C(F)(F)F)C2 [Example 31, (S)-1-(2-Cyclopropyl-2-oxoethyl)-2-methyl-7-((R)-3-methyl-morpholin-4-yl)-2-trifluoromethyl-2,3-dihydro-1H-imidazo[1,2-a]-pyrimidin-5-one]
- IC50: < 10 nM

SMILES: C[C@@H]1COCCN1c1cc(=O)n2c(n1)N(CC(=O)C1CCOCC1)[C@](C)(C(F)(F)F)C2 [Example 190, (S)-2-Methyl-7-((R)-3-methylmorpholin-4-yl)-1-[2-oxo-2-(tetrahydro-pyran-4-yl)ethyl]-2-trifluoromethyl-2,3-dihydro-1H-imidazo[1,2-a]-pyrimidin-5-one]
- IC50: < 10 nM

SMILES: C[C@@H]1COCCN1c1cc(=O)n2c(n1)N(Cc1ccn(C(F)F)n1)[C@H](C(F)(F)F)CC2 [Example 32, (S)-9-(1-Difluoromethyl-1H-pyrazol-3-ylmethyl)-2-((R)-3-methyl-morpholin-4-yl)-8-trifluoromethyl-6,7,8,9-tetrahydro-pyrimido[1,2-a]-pyrimidin-4-one]
- IC50: < 10 nM

SMILES: COc1cc(N2c3nc(N4CCOC[C@H]4C)cc(=O)n3CC[C@H]2C(F)(F)F)ccn1 [Example 80, (S)-9-(2-Methoxy-pyridin-4-yl)-2-((R)-3-methylmorpholin-4-yl)-8-trifluoromethyl-6,7,8,9-tetrahydro-pyrimido[1,2-a]-pyrimidin-4-one]
- IC50: < 10 nM

SMILES: C[C@@H]1COCCN1c1cc(=O)n2c(n1)N(CC(=O)N1CCCCC1)[C@H](C(F)(F)F)CC2 [Example 233, (S)-2-((R)-3-Methyl-morpholin-4-yl)-9-(2-oxo-2-piperidin-1-yl-ethyl)-8-trifluoromethyl-6,7,8,9-tetrahydro-pyrimido[1,2-a]-pyrimidin-4-one]
- IC50: < 10 nM

SMILES: COC(=O)CN1c2nc(N3CCOC[C@H]3C)c(F)c(=O)n2CC[C@H]1C(F)(F)F [Example 283, [(S)-7-Fluoro-8-((R)-3-methylmorpholin-4-yl)-6-oxo-2-trifluoromethyl-3,4-dihydro-2H,6H-pyrimido[1,2-a]-pyrimidin-1-yl]acetic acid methyl ester]
- IC50: < 10 nM

SMILES: CCC(=O)CN1c2nc(N3CCOC[C@H]3C)c(F)c(=O)n2CC[C@H]1C(F)(F)F [Example 22, (S)-3-Fluoro-2-((R)-3-methylmorpholin-4-yl)-9-(2-oxobutyl)-8-trifluoromethyl-6,7,8,9-tetrahydro-pyrimido[1,2-a]-pyrimidin-4-one]
- IC50: < 10 nM

SMILES: CCC(=O)CN1c2nc(N3CCOC[C@H]3C)cc(=O)n2CC[C@H]1C(F)(F)F [Example 16, (S)-2-((R)-3-Methyl-morpholin-4-yl)-9-(2-oxobutyl)-8-trifluoromethyl-6,7,8,9-tetrahydro-pyrimido[1,2-a]-pyrimidin-4-one]
- IC50: < 10 nM

SMILES: Cc1cc(CN2c3nc(N4CCOC[C@H]4C)c(F)c(=O)n3CC[C@H]2C(F)(F)F)on1 [Example 299, (S)-3-Fluoro-9-(3-methylisoxazol-5-yl-methyl)-2-((R)-3-methylmorpholin-4-yl)-8-trifluoromethyl-6,7,8,9-tetrahydro-pyrimido[1,2-a]-pyrimidin-4-one]
- IC50: < 10 nM

SMILES: C[C@@H]1COCCN1c1cc(=O)n2c(n1)N(Cc1ccnnc1)[C@H](C(F)(F)F)CC2 [Example 259, (S)-2-((R)-3-methyl-morpholin-4-yl)-9-pyridazin-4-ylmethyl-8-trifluoromethyl-6,7,8,9-tetrahydro-pyrimido[1,2-a]-pyrimidin-4-one]
- IC50: < 10 nM

SMILES: CC(C)Oc1cc(CN2c3nc(N4CCOC[C@H]4C)cc(=O)n3CC[C@H]2C(F)(F)F)ccn1 [Example 225, (S)-9-(2-Isopropoxy-pyridin-4-ylmethyl)-2-((R)-3-methyl-morpholin-4-yl)-8-trifluoromethyl-6,7,8,9-tetrahydro-pyrimido[1,2-a]-pyrimidin-4-one]
- IC50: < 10 nM

SMILES: C[C@@H]1COCCN1c1cc(=O)n2c(n1)N(Cc1noc(C3CC3)n1)[C@H](C(F)(F)F)CC2 [Example 202, (S)-9-(5-Cyclopropyl-[1,2,4]oxadiazol-3-yl-methyl)-2-((R)-3-methylmorpholin-4-yl)-8-trifluoromethyl-6,7,8,9-tetrahydro-pyrimido[1,2-a]-pyrimidin-4-one]
- IC50: < 10 nM

SMILES: C[C@@H]1COCCN1c1cc(=O)n2c(n1)N(CC(=O)C1CCCN1C(=O)OC(C)(C)C)[C@H](C(F)(F)F)CC2 (stereo partly drawn) [Example 261, 2-{2-[(S)-8-((R)-3-Methylmorpholin-4-yl)-6-oxo-2-trifluoromethyl-3,4-dihydro-2H,6H-pyrimido[1,2-a]-pyrimidin-1-yl]acetyl}-pyrrolidine-1-carboxylic acid tert-butyl ester]
- IC50: 10 to 100 nM

SMILES: C[C@@H]1COCCN1c1nc2n(c(=O)c1F)CC[C@@H](C(F)(F)F)N2Cc1cccnc1F [Example 58, (S)-3-Fluoro-9-(2-fluoropyridin-3-yl-methyl)-2-((R)-3-methylmorpholin-4-yl)-8-trifluoromethyl-6,7,8,9-tetrahydro-pyrimido[1,2-a]-pyrimidin-4-one]
- IC50: < 10 nM

SMILES: COc1cc(N2c3nc(N4CCOC[C@H]4C)c(F)c(=O)n3CC[C@H]2C(F)(F)F)ccn1 [Example 40, (S)-3-Fluoro-9-(2-methoxypyridin-4-yl)-2-((R)-3-Methyl-morpholin-4-yl)-8-trifluoromethyl-6,7,8,9-tetrahydro-pyrimido[1,2-a]-pyrimidin-4-one]
- IC50: < 10 nM

SMILES: C[C@@H]1COCCN1c1cc(=O)n2c(n1)N(c1ccc(C(F)F)nc1)C(C(F)(F)F)CC2 (stereo partly drawn) [Example 134, 9-(6-Difluoromethyl-pyridin-3-yl)-2-((R)-3-methylmorpholin-4-yl)-8-trifluoromethyl-6,7,8,9-tetrahydro-pyrimido[1,2-a]-pyrimidin-4-one]
- IC50: < 10 nM

SMILES: C[C@@H]1COCCN1c1nc2n(c(=O)c1F)CC[C@@H](C(F)(F)F)N2Cc1ccnc(F)c1 [Example 5, (S)-3-Fluoro-9-(2-fluoropyridin-4-yl-methyl)-2-((R)-3-methylmorpholin-4-yl)-8-trifluoromethyl-6,7,8,9-tetrahydro-pyrimido[1,2-a]-pyrimidin-4-one]
- IC50: < 10 nM

SMILES: C[C@@H]1COCCN1c1cc(=O)n2c(n1)N(Cc1ccon1)[C@](C)(C(F)(F)F)CC2 [Example 215, (S)-9-Isoxazol-3-yl-methyl-8-methyl-2-((R)-3-methyl-morpholin-4-yl)-8-trifluoromethyl-6,7,8,9-tetrahydro-pyrimido[1,2-a]-pyrimidin-4-one]
- IC50: < 10 nM

SMILES: C[C@@H]1COCCN1c1cc(=O)n2c(n1)N(Cc1cocn1)[C@H](C(F)(F)F)CC2 [Example 103, (S)-2-((R)-3-Methyl-morpholin-4-yl)-9-oxazol-4-ylmethyl-8-trifluoromethyl-6,7,8,9-tetrahydro-pyrimido[1,2-a]-pyrimidin-4-one]
- IC50: < 10 nM

SMILES: C[C@@H]1COCCN1c1nc2n(c(=O)c1F)CC[C@@H](C(F)(F)F)N2Cc1ccnn1C(F)F [Example 297, (S)-9-(2-Difluoromethyl-2H-pyrazol-3-ylmethyl)-3-fluoro-2-((R)-3-methyl-morpholin-4-yl)-8-trifluoromethyl-6,7,8,9-tetrahydro-pyrimido[1,2-a]-pyrimidin-4-one]
- IC50: < 10 nM

SMILES: CC(=O)N1c2nc(N3CCOC[C@H]3C)cc(=O)n2CC[C@H]1C(F)(F)F [Example 238, (S)-9-Acetyl-2-((R)-3-methylmorpholin-4-yl)-8-trifluoromethyl-6,7,8,9-tetrahydro-pyrimido[1,2-a]-pyrimidin-4-one]
- IC50: > 100 nM

SMILES: C[C@@H]1COCCN1c1nc2n(c(=O)c1F)[C@@H](C(F)(F)F)CCN2CC(=O)c1ccccn1 [Example 135, (R)-3-Fluoro-2-((R)-3-methylmorpholin-4-yl)-9-(2-oxo-2-pyridin-2-ylethyl)-6-trifluoromethyl-6,7,8,9-tetrahydro-pyrimido[1,2-a]-pyrimidin-4-one]
- IC50: < 10 nM

SMILES: C[C@@H]1COCCN1c1cc(=O)n2c(n1)N(C/C(=N/O)C1CC1)[C@H](C(F)(F)F)CC2 (single isomer, unassigned) [Example 305]
- IC50: < 10 nM

SMILES: C[C@@H]1COCCN1c1nc2n(c(=O)c1F)CC[C@@H](C(F)(F)F)N2Cc1ccc(Cl)nc1 [Example 52, (S)-9-(6-Chloro-pyridin-3-ylmethyl)-3-fluoro-2-((R)-3-methyl-morpholin-4-yl)-8-trifluoromethyl-6,7,8,9-tetrahydro-pyrimido[1,2-a]-pyrimidin-4-one]
- IC50: < 10 nM

SMILES: C[C@@H]1COCCN1c1cc(=O)n2c(n1)N(Cc1nccs1)[C@H](C(F)(F)F)CC2 [Example 231, (S)-2-((R)-3-Methyl-morpholin-4-yl)-9-thiazol-2-ylmethyl-8-trifluoromethyl-6,7,8,9-tetrahydro-pyrimido[1,2-a]-pyrimidin-4-one]
- IC50: < 10 nM

Source: patent publication US11739100B2, “2,3-dihydro-1h-imidazo{1,2-a}pyrimidin-5-one and this 1,2,3,4-tetrahydropyrimido{1,2-a}pyrimidin-6-one derivatives comprising a substituted morpholine, preparation thereof and pharmaceutical use thereof” (SANOFI, priority 2012, dated 2023)
